Read-outs that look alike come from different tables or passages of the source.
Assays:
[1] = test system: Key Grass and Sedge Weeds as well as Grass Crops; assay: Post-emergent Test II herbicidal activity (Table 16); type: in vivo; settings: post-emergence, 336 h, 14 d; for pest or weed control at 35 g/ha: 35 g ai/ha; for pest or weed control at 70 g/ha: 70 g ai/ha; for pest or weed control at 140 g/ha: 140 g ai/ha
Summary of the method: (§1)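 Greenhouse-grown seedlings at first/second true leaf receive a track spray at 187 L/ha, using a highest rate plus two-fold serial dilutions down to 1/16×. Watering is by subirrigation to avoid wash-off. Percent injury (0-100) is judged by eye at 14 d against untreated plants.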

[2] = test system: Key Broadleaf Weed and Crop Species; assay: Post-emergent Test II herbicidal activity (Table 15); type: in vivo; settings: post-emergence, 336 h, 14 d; for pest or weed control at 35 g/ha: 35 g ai/ha; for pest or weed control at 70 g/ha: 70 g ai/ha; for pest or weed control at 140 g/ha: 140 g ai/ha
Summary of the method: as §1

[3] = Cyperus esculentus, yellow nutsedge (Cyperus esculentus), read-out: Visual Growth Reduction (%) 14 Days After Application, CYPES
[4] = Echinochloa crus-galli, barnyardgrass (Echinochloa crus-galli), read-out: Visual Growth Reduction (%) 14 Days After Application, ECHCG
[5] = Oryza sativa, rice (Oryza sativa), read-out: Visual Growth Reduction (%) 14 Days After Application, ORYSA
[6] = Setaria faberi, giant foxtail (Setaria faberi), read-out: Visual Growth Reduction (%) 14 Days After Application, SETFA
[7] = Triticum aestivum, wheat, spring (Triticum aestivum), read-out: Visual Growth Reduction (%) 14 Days After Application, TRZAS
[8] = Zea mays, maize, corn (Zea mays), read-out: Visual Growth Reduction (%) 14 Days After Application, ZEAMX
[9] = Abutilon theophrasti, velvetleaf (Abutilon theophrasti), read-out: Visual Growth Reduction (%) 14 Days After Application, ABUTH
[10] = Amaranthus retroflexus, redroot pigweed (Amaranthus retroflexus), read-out: Visual Growth Reduction (%) 14 Days After Application, AMARE
[11] = Brassica napus, oilseed rape, canola (Brassica napus), read-out: Visual Growth Reduction (%) 14 Days After Application, BRSNN
[12] = Chenopodium album, lambsquarters (Chenopodium album), read-out: Visual Growth Reduction (%) 14 Days After Application, CHEAL
[13] = Euphorbia heterophylla, wild poinsettia (Euphorbia heterophylla), read-out: Visual Growth Reduction (%) 14 Days After Application, EPHHL
[14] = Helianthus annuus, sunflower (Helianthus annuus), read-out: Visual Growth Reduction (%) 14 Days After Application, HELAN

melting point [°C]	Compound	pest or weed control at 35 g/ha [1, 3] [%]	pest or weed control at 70 g/ha [1, 3] [%]	pest or weed control at 140 g/ha [1, 3] [%]	pest or weed control at 35 g/ha [1, 4] [%]	pest or weed control at 70 g/ha [1, 4] [%]	pest or weed control at 140 g/ha [1, 4] [%]	pest or weed control at 35 g/ha [1, 5] [%]	pest or weed control at 70 g/ha [1, 5] [%]	pest or weed control at 140 g/ha [1, 5] [%]	pest or weed control at 35 g/ha [1, 7] [%]	pest or weed control at 70 g/ha [1, 7] [%]	pest or weed control at 140 g/ha [1, 7] [%]	pest or weed control at 35 g/ha [1, 8] [%]	pest or weed control at 70 g/ha [1, 8] [%]	pest or weed control at 140 g/ha [1, 8] [%]	pest or weed control at 35 g/ha [2, 9] [%]	pest or weed control at 70 g/ha [2, 9] [%]	pest or weed control at 140 g/ha [2, 9] [%]	pest or weed control at 35 g/ha [2, 10] [%]	other results
226	COC(=O)c1nc(-c2ccc(Cl)c3[nH]ccc23)nc(N)c1OC [Compound 1.45]	0 to 29	0 to 29	0 to 29	0 to 29	0 to 29	0 to 29	0 to 29	0 to 29	0 to 29	0 to 29	0 to 29	0 to 29	0 to 29	0 to 29	0 to 29	0 to 29	0 to 29	0 to 29	0 to 29	pest or weed control at 35 g/ha [1, 6]: 0 to 29%; pest or weed control at 70 g/ha [1, 6]: 0 to 29%; pest or weed control at 140 g/ha [1, 6]: 0 to 29%; pest or weed control at 70 g/ha [2, 10]: 0 to 29%; pest or weed control at 140 g/ha [2, 10]: 45 to 59%; pest or weed control at 35 g/ha [2, 11]: 0 to 29%; pest or weed control at 70 g/ha [2, 11]: 0 to 29%; pest or weed control at 140 g/ha [2, 11]: 0 to 29%; pest or weed control at 35 g/ha [2, 12]: 0 to 29%; pest or weed control at 70 g/ha [2, 12]: 0 to 29%; pest or weed control at 140 g/ha [2, 12]: 0 to 29%; pest or weed control at 35 g/ha [2, 13]: 0 to 29%; pest or weed control at 70 g/ha [2, 13]: 0 to 29%; pest or weed control at 140 g/ha [2, 13]: 0 to 29%; pest or weed control at 35 g/ha [2, 14]: 0 to 29%; pest or weed control at 70 g/ha [2, 14]: 0 to 29%; pest or weed control at 140 g/ha [2, 14]: 30 to 44%
158 to 159	COC(=O)c1nc(-c2ccc(Cl)c3occc23)cc(N)c1Cl [Compound 2.19]	0 to 29	0 to 29	0 to 29	0 to 29	0 to 29	0 to 29	0 to 29	0 to 29	0 to 29	0 to 29	0 to 29	0 to 29	0 to 29	0 to 29	0 to 29	95 to 100	95 to 100	95 to 100	95 to 100	pest or weed control at 70 g/ha [2, 10]: 95 to 100%; pest or weed control at 140 g/ha [2, 10]: 95 to 100%; pest or weed control at 35 g/ha [2, 11]: 0 to 29%; pest or weed control at 70 g/ha [2, 11]: 60 to 74%; pest or weed control at 140 g/ha [2, 11]: 60 to 74%; pest or weed control at 35 g/ha [2, 12]: 95 to 100%; pest or weed control at 70 g/ha [2, 12]: 95 to 100%; pest or weed control at 140 g/ha [2, 12]: 95 to 100%; pest or weed control at 35 g/ha [2, 13]: 0 to 29%; pest or weed control at 70 g/ha [2, 13]: 0 to 29%; pest or weed control at 140 g/ha [2, 13]: 0 to 29%; pest or weed control at 35 g/ha [2, 14]: 0 to 29%; pest or weed control at 70 g/ha [2, 14]: 75 to 84%; pest or weed control at 140 g/ha [2, 14]: 75 to 84%
